Results published in PubChem BioAssay (NCI).
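The concentration for 50% growth inhibition is given as GI50. The concentration for full growth arrest is given as TGI.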

Tests used:
Experiment in all cases: NCI anticancer screen, dose series, 384-well format
[1] = tested on: 786-0 renal
[2] = tested on: A498 renal
[3] = tested on: A549 NSCLC
[4] = tested on: ACHN renal
[5] = tested on: BT-549 breast
[6] = tested on: CAKI-1 renal
[7] = tested on: CCRF-CEM leukemia
[8] = tested on: COLO 205 colon
[9] = tested on: DU-145 prostate
[10] = tested on: EKVX NSCLC
[11] = tested on: HCC-2998 colon
[12] = tested on: HCT-15 colon
[13] = tested on: HL-60(TB) leukemia
[14] = tested on: HOP-62 NSCLC
[15] = tested on: HOP-92 NSCLC
[16] = tested on: HS 578T breast
[17] = tested on: HT29 colon
[18] = tested on: IGROV1 ovarian
[19] = tested on: K-562 leukemia
[20] = tested on: KM12 colon
[21] = tested on: LOX IMVI melanoma
[22] = tested on: M14 melanoma
[23] = tested on: MALME-3M melanoma
[24] = tested on: MCF7 breast
[25] = tested on: MDA-MB-231 breast
[26] = tested on: MDA-MB-435 melanoma
[27] = tested on: MDA-MB-468 breast
[28] = tested on: MOLT-4 leukemia
[29] = tested on: NCI-H226 lung
[30] = tested on: NCI-H23 lung
[31] = tested on: NCI-H322M lung
[32] = tested on: NCI-H460 NSCLC
[33] = tested on: NCI-H522 lung
[34] = tested on: NCI/ADR-RES ovarian
[35] = tested on: OVCAR-3 ovarian
[36] = tested on: OVCAR-4 ovarian
[37] = tested on: OVCAR-5 ovarian
[38] = tested on: OVCAR-8 ovarian
[39] = tested on: PC-3 prostate
[40] = tested on: RPMI-8226 leukemia
[41] = tested on: RXF 393 renal
[42] = tested on: SF-268 CNS
[43] = tested on: SF-295 CNS
[44] = tested on: SF-539 CNS
[45] = tested on: SK-MEL-28 melanoma
[46] = tested on: SK-MEL-5 melanoma
[47] = tested on: SK-OV-3 ovarian
[48] = tested on: SN12C renal
[49] = tested on: SNB-19 CNS
[50] = tested on: SNB-75 CNS
[51] = tested on: SR leukemia
[52] = tested on: SW-620 colon
[53] = tested on: T-47D breast
[54] = tested on: TK-10 renal
[55] = tested on: UACC-257 melanoma
[56] = tested on: UACC-62 melanoma
[57] = tested on: UO-31 renal

SMILES: Cc1cc2ncnn2cc1Nc1ncc2c(n1)n(C1CCOCC1)c(=O)n2C
- GI50 [1]: 36.4 µM
- TGI [1]: > 100 µM
- GI50 [2]: 2660 nM
- TGI [2]: 31.3 µM
- GI50 [3]: 12.1 µM
- TGI [3]: > 100 µM
- GI50 [4]: 21.5 µM
- TGI [4]: > 100 µM
- GI50 [5]: 24.2 µM
- TGI [5]: > 100 µM
- GI50 [6]: 16.5 µM
- TGI [6]: > 100 µM
- GI50 [7]: 3.21 µM
- TGI [7]: 17.5 µM
- GI50 [8]: 17.1 µM
- TGI [8]: > 100 µM
- GI50 [9]: 28.8 µM
- TGI [9]: > 100 µM
- GI50 [10]: 15.6 µM
- TGI [10]: > 100 µM
- GI50 [11]: 38.2 µM
- TGI [11]: > 100 µM
- GI50 [12]: 12 µM
- TGI [12]: > 100 µM
- GI50 [13]: 35.2 µM
- TGI [13]: > 100 µM
- GI50 [14]: 22.2 µM
- TGI [14]: > 100 µM
- GI50 [15]: 6.69 µM
- TGI [15]: > 100 µM
- GI50 [16]: 4.78 µM
- TGI [16]: 37.9 µM
- GI50 [17]: 32.9 µM
- TGI [17]: > 100 µM
- GI50 [18]: 4.91 µM
- TGI [18]: 32.9 µM
- GI50 [19]: > 100 µM
- TGI [19]: > 100 µM
- GI50 [20]: 18 µM
- TGI [20]: > 100 µM
- GI50 [21]: 14.4 µM
- TGI [21]: > 100 µM
- GI50 [22]: 19.3 µM
- TGI [22]: > 100 µM
- GI50 [23]: 4.21 µM
- TGI [23]: 61.9 µM
- GI50 [24]: 4.64 µM
- TGI [24]: > 100 µM
- GI50 [25]: 7.65 µM
- TGI [25]: > 100 µM
- GI50 [26]: 41.4 µM
- TGI [26]: > 100 µM
- GI50 [27]: 5.36 µM
- TGI [27]: 52.7 µM
- GI50 [28]: 5.53 µM
- TGI [28]: 33.8 µM
- GI50 [29]: 10.5 µM
- TGI [29]: > 100 µM
- GI50 [30]: 26.5 µM
- TGI [30]: > 100 µM
- GI50 [31]: 18.8 µM
- TGI [31]: > 100 µM
- GI50 [32]: 4.88 µM
- TGI [32]: > 100 µM
- GI50 [33]: 9.5 µM
- TGI [33]: > 100 µM
- GI50 [34]: > 100 µM
- TGI [34]: > 100 µM
- GI50 [35]: 14.5 µM
- TGI [35]: > 100 µM
- GI50 [36]: 8.13 µM
- TGI [36]: > 100 µM
- GI50 [37]: 11.9 µM
- TGI [37]: > 100 µM
- GI50 [38]: 50.5 µM
- TGI [38]: > 100 µM
- GI50 [39]: 8.76 µM
- TGI [39]: > 100 µM
- GI50 [40]: 1440 nM
- TGI [40]: 3.98 µM
- GI50 [41]: 49.6 µM
- TGI [41]: > 100 µM
- GI50 [42]: > 100 µM
- TGI [42]: > 100 µM
- GI50 [43]: 6.33 µM
- TGI [43]: > 100 µM
- GI50 [44]: 58.2 µM
- TGI [44]: > 100 µM
- GI50 [45]: 22.4 µM
- TGI [45]: > 100 µM
- GI50 [46]: 15.5 µM
- TGI [46]: > 100 µM
- GI50 [47]: 6.16 µM
- TGI [47]: > 100 µM
- GI50 [48]: 10.4 µM
- TGI [48]: > 100 µM
- GI50 [49]: > 100 µM
- TGI [49]: > 100 µM
- GI50 [50]: 6.38 µM
- TGI [50]: > 100 µM
- GI50 [51]: 4.11 µM
- TGI [51]: > 100 µM
- GI50 [52]: > 100 µM
- TGI [52]: > 100 µM
- GI50 [53]: 1700 nM
- TGI [53]: 7.63 µM
- GI50 [54]: 74.7 µM
- TGI [54]: > 100 µM
- GI50 [55]: > 100 µM
- TGI [55]: > 100 µM
- GI50 [56]: 21.2 µM
- TGI [56]: > 100 µM
- GI50 [57]: > 100 µM
- TGI [57]: > 100 µM
